Patent US9186402B2 (Colorado State University Research Foundation, priority 2008, dated 2015)
Where two headings read alike, the source gives them in different places.

What was measured:
[1] = amide bond, HATU, CH3CN
HDAC6 = target: T1, HDAC6 (Homo sapiens, UniProt Q9UBN7); assay: HDAC biochemical assay (IC50), 384-well homogeneous; conditions: read-out: Biochemical inhibition of human HDACs (IC50) HDAC6
T1 sequence (Q9UBN7 1-1215): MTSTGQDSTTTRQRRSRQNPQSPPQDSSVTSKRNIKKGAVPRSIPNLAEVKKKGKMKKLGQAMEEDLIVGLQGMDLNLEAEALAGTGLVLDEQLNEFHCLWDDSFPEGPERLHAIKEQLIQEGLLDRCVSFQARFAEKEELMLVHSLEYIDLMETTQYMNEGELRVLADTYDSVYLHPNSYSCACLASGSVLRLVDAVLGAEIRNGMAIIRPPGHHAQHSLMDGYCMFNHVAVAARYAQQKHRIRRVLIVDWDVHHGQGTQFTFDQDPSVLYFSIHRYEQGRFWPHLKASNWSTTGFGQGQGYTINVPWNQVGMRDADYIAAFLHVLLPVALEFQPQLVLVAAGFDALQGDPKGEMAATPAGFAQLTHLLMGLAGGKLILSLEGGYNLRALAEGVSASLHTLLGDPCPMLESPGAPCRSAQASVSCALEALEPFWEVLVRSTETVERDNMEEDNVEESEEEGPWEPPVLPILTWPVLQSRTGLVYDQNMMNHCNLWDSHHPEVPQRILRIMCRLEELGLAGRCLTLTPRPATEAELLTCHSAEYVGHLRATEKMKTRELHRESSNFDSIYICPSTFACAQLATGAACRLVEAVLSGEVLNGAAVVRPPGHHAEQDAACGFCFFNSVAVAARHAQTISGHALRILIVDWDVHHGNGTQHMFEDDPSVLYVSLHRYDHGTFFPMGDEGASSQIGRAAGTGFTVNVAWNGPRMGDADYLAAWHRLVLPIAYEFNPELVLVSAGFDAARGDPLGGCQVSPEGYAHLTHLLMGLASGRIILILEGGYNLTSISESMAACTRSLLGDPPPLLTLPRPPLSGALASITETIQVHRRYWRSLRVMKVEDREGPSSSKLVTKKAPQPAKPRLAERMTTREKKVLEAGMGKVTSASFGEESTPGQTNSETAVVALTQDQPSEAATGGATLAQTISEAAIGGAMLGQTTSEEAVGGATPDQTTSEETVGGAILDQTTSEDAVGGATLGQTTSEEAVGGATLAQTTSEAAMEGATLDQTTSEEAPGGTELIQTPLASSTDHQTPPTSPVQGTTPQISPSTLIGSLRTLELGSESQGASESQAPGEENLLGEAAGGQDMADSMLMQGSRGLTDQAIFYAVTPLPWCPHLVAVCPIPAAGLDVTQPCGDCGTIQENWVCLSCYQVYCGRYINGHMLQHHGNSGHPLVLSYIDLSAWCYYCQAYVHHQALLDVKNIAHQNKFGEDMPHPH
Description: (§1) The inhibitory effect of compounds on deacetylase isoenzyme function was determined in vitro using an optimized homogenous assay performed in 384-well plate format. […] Data are analyzed on a plate-by-plate basis for the linear range of fluorescence over time. Data from the plate capture corresponding to the mid-linear range is imported into analytical software and annotated with well identity and compound concentration (Spotfire DecisionSite). Replicate experimental data from incubations with inhibitor are normalized to control, solvent-only wells and IC-50 is deteremined by logistic regression.
(§2) A liquid handling device then transferred a tripeptide substrate terminating in acetyl-lysine and amide conjugated to 4-methyl-7-aminocoumarin (AMC), recombinant human histone deacetylase (BPS Bioscience, San Diego, Calif.), and recombinant human trypsin (Sigma-Aldrich, St. Louis, Mo.). Following deacetylase hydrolysis of acetyl-lysine, trypsin cleavage liberated the AMC fluorophore. Kinetic (fluorescence per unit time) and end-point (total fluorescence) data were captured by a multilabel plate reader. Replicate data were analyzed by curve-fit using logistic regression (Snotfire Decision—Site).

HDAC2 [2] = target: T2, HDAC2 (Homo sapiens, UniProt Q92769); assay: as above; conditions: reducing conditions (TCEP 200 μM); read-out: Biochemical inhibition of human HDACs (IC50) HDAC2
Description: as §1, §2

HDAC3/NCor2 = HDAC3/NCor2 (Homo sapiens, UniProt O15379); assay: as above; conditions: read-out: Biochemical inhibition of human HDACs (IC50) HDAC3
Description: as §1, §2

HDAC2 [3] = target: T2, HDAC2; assay: HDAC2 inhibition, trypsin-coupled kinetic fluorescence homogeneous assay; assay type: biochemical
Description: To measure the inhibitory effect on deacetylase function in vitro, a continuous kinetic biochemical assay miniaturized to 384-well plate format was optimized.
Fluorescence measurements were obtained in real-time on a Varioskan microtiter plate reader (Thermo). Triplicate experimental data from incubations with inhibitor were normalized to solvent-only wells and analyzed by logistic regression (Spotfire DecisionSite).
A biochemical study of HDAC2 inhibition was carried out using the trypsin-coupled, kinetic fluorescence homogeneous assay described above.

HDAC1 = HDAC1 (Homo sapiens, UniProt Q13547); assay: HDAC biochemical assay (IC50), 384-well homogeneous; conditions: reducing conditions (TCEP 200 μM); read-out: Biochemical inhibition of human HDACs (IC50) HDAC1
Description: as §1, §2

[4] = test system: human malignant melanoma cell lines; assay: cell viability by ATP content (Cell TiterGlo), melanoma panel; assay type: cell-based; conditions: range over panel of human malignant melanoma cell lines, read-out: IC50 melanoma cell proliferation / viability
HDACs 1, 2 and 3 = assay: HDAC biochemical assay, summary statements on Class I HDACs; design: species or system human
[5] = HDAC2, logistic fit of scatter plots, Conc (uM), read-out: X50 (curve fit, activity versus concentration)
[6] = reducing conditions (TCEP 200 μM)

Sequence of HDAC1 (Q13547 whole entry): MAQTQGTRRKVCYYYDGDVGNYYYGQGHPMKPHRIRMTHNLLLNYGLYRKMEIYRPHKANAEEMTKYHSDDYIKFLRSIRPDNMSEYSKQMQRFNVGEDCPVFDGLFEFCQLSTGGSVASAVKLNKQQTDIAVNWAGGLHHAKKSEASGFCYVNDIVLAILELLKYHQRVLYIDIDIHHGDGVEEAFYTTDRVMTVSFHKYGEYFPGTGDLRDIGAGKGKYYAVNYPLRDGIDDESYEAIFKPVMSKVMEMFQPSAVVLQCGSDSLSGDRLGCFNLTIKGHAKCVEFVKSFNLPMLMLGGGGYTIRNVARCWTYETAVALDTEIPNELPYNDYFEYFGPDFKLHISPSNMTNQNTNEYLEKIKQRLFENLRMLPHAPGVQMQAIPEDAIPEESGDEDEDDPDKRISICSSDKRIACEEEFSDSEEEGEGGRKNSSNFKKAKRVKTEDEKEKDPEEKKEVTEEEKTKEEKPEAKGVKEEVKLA
T2 sequence (Q92769 whole entry): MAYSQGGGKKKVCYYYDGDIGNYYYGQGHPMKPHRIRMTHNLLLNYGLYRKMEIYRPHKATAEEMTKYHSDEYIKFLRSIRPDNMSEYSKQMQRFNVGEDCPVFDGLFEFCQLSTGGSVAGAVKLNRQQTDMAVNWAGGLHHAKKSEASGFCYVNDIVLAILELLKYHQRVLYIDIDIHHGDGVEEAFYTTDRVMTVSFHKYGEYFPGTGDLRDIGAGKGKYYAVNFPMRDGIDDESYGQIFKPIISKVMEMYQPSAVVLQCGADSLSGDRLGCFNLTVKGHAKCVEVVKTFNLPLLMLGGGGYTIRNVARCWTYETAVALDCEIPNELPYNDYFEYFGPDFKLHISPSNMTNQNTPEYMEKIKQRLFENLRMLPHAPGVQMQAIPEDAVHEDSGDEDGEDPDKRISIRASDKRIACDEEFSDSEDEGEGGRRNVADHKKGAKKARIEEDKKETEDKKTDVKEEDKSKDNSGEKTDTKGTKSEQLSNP
Sequence of HDAC3/NCor2 (O15379 whole entry): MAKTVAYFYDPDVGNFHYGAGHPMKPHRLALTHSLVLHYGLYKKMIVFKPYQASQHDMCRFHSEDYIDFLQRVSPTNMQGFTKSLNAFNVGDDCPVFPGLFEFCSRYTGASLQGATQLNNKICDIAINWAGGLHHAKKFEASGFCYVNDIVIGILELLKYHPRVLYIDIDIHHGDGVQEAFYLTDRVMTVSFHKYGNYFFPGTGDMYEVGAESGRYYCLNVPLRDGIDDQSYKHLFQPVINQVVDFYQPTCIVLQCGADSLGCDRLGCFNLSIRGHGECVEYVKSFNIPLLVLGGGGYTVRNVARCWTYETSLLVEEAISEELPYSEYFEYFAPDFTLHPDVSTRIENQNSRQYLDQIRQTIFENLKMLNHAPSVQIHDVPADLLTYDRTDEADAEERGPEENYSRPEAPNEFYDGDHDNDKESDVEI
Sequence of HDAC3/NCor2 (Q9Y618 395-489 partner limits assumed): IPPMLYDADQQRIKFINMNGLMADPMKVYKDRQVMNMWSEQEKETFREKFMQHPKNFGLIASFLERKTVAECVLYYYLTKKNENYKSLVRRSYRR

With `C[C@@]12CSC(=N1)c1csc(n1)CNC(=O)C[C@@H](/C=C/CCSC(c1ccccc1)(c1ccccc1)c1ccccc1)OC(=O)[C@@H]1CCCN1C2=O` the ring closure, yield of all isomers ([1]; from CC(C)(C)OC(=O)NCc1nc(C2=N[C@](C)(C(=O)N3CCC[C@H]3C(=O)O[C@H](/C=C/CCSC(c3ccccc3)(c3ccccc3)c3ccccc3)CC(=O)OCC[Si](C)(C)C)CS2)cs1, 0.83 mM, […], 2 steps) was 43%.
For `C[C@@]12CSC(=N1)c1csc(n1)CNC(=O)C[C@@H](/C=C/CCS)OC(=O)[C@@H]1CCCN1C2=O` [Proline substitution (4)], the IC50 (HDAC6) was 13000 nM, the IC50 (HDAC2 [2]) was 800 nM and the IC50 (HDAC3/NCor2) was 580 nM. The “X50 (curve fit, activity versus concentration)” value (HDAC2 [3]) was “X50 = 0.7733 uM” and the IC50 (HDAC1) was 110 nM.
In the case of `CCCCCCCC(=O)SCC/C=C/[C@@H]1CC(=O)NCc2nc(cs2)C2=N[C@@](C)(CS2)C(=O)N2CCC[C@H]2C(=O)O1` [ab6_161b Proline acyl], the IC50 (HDAC2 [3]; [5]) is reported as 708 µM.
Work on `CCCCCCCC(=O)SCC/C=C/[C@@H]1CC(=O)NCc2nc(cs2)C2=N[C@@](C)(CS2)C(=O)N[C@@H](C(C)C)C(=O)O1` [largazole (1), largazole, reference compound] yielded an IC50 (HDAC2 [3]) of 7.14 µM and an IC50 [4] of 45 to 315 nM.
In the case of `CC(C)[C@@H]1NC(=O)[C@]2(C)CSC(=N2)c2csc(n2)CNC(=O)C[C@@H](/C=C/CCSC(c2ccccc2)(c2ccccc2)c2ccccc2)NC1=O`, the ring closure, yield of all isomers ([1]; from COC(=O)C[C@@H](/C=C/CCSC(c1ccccc1)(c1ccccc1)c1ccccc1)NC(=O)[C@@H](NC(=O)[C@]1(C)CSC(c2csc(CNC(=O)OC(C)(C)C)n2)=N1)C(C)C, 0.94 mM, […], 3 steps) is reported as 50%.
In the case of `CC(C)C1NC(=O)C2CSC(=N2)c2csc(n2)CNC(=O)CC(C=CCCS)OC1=O` (stereo not shown) [Cysteine substitution 22b], the IC50 (HDAC6; [6]) is reported as 130 nM, the IC50 (HDAC2 [2]) is reported as 4.8 nM and the IC50 (HDAC3/NCor2; [6]) is reported as 3.8 nM. For the same compound, the IC50 (HDAC1) was 1.9 nM.
With `CC(C)[C@@H]1NC(=O)c2csc(n2)-c2csc(n2)CNC(=O)C[C@@H](/C=C/CCS)OC1=O` [Thiazole-thiazole (23b)] the IC50 (HDAC2 [2]) was 120 nM.
`CCCCCCCC(=O)SCCCCC=CC1CC(=O)NCc2nc(cs2)C2=NC(C)(CS2)C(=O)NC(C(C)C)C(=O)O1` (stereo not shown) [ab6_162b] gave an IC50 (HDAC2 [3]; [5]) of 2.69 µM.
In the case of `CCCCCCCC(=O)SCC/C=C/[C@@H]1CC(=O)NCc2nc(cs2)C2=N[C@@](C)(CS2)C(=O)N[C@@H](C(C)C)C(=O)N1` [ab6_1236 acyl amide], the “X50 (curve fit, activity versus concentration)” value (HDAC2 [3]; HDAC2, logistic fit of scatter plots, Conc (uM)) is reported as “X50 = 1.677E12 uM”.
With `CC(C)[C@@H]1NC(=O)[C@]2(C)CSC(=N2)c2csc(n2)CNC(=O)C[C@@H](C/C=C\CCC(=O)O)OC1=O` [Largazole-Azumamide hybrid (9b)] the IC50 (HDAC6; [6]) was > 30000 nM, the IC50 (HDAC2 [2]) was > 30000 nM and the IC50 (HDAC3/NCor2; [6]) was > 30000 nM. For the same compound, the IC50 (HDAC1) was > 30000 nM.
In the case of `CC(C)C1NC(=O)C2(C)CSC(=N2)c2cccc(n2)CNC(=O)CC(C=CCCS)OC1=O` (stereo not shown) [Thiazole-pyridine substitution (29b)], the IC50 (HDAC6; [6]) is reported as 29 nM, the “activity against Class I HDACs” value (HDACs 1, 2 and 3) is reported as “sub-nanomolar” and the IC50 (HDAC3/NCor2; [6]) is reported as 1.1 nM.
Compound `CC(C)[C@H]1NC(=O)[C@@]2(C)CSC(=N2)c2csc(n2)CNC(=O)C[C@H](/C=C/CCSC(c2ccccc2)(c2ccccc2)c2ccccc2)OC1=O` has a ring closure, yield of all isomers ([1]; from CC(C)[C@@H](NC(=O)[C@@]1(C)CSC(c2csc(CNC(=O)OC(C)(C)C)n2)=N1)C(=O)O[C@@H](/C=C/CCSC(c1ccccc1)(c1ccccc1)c1ccccc1)CC(=O)OCC[Si](C)(C)C, 2 steps) of 87%.
